Experimental data reported in PMC11055068, “Humoral Immune Response to SARS-CoV-2 Spike Protein Receptor-Binding Motif Linear Epitopes” (Vaccines, 2024).

Assays:
[1] = test system: IgG in serum of vaccinated individuals; test: In-house peptide ELISA, IgG; assay type: binding, human; conditions: serum 1:25; for IgG seroreactivity (positive samples): reactivity index > 1.1
Method: A panel of 31 serum samples were obtained from individuals who received a single dose of the Oxford/AstraZeneca vaccine, and 15 serum samples were collected from individuals who received four doses. Serum from healthy donors, collected before the pandemic, was provided by HEMORIO, a centralized network of blood donor facilities in Rio de Janeiro, Brazil. Serum samples were supplied without identifying information to ensure patient privacy.
An in-house ELISA was conducted using Immunolon 4 HB plates (Immunochemistry Technologies, Bloomington, MN, USA). The coating process involved overnight incubation at 4 °C, wherein each well received 500 ng of peptides in a coating buffer (50 mM carbonate–bicarbonate buffer, pH 9.6). After washing with PBS-T (phosphate-buffered saline plus 0.05% Tween 20), the plates were incubated for 1 h at 37 °C with 1% BSA (200 µL) in PBS-T to block free binding sites. Following the dilution of patient serum in PBS-T with 1% BSA (1:25), 100 µL of the diluted serum was applied to immunosorbent plates, which were then incubated at 37 °C for 1 h. Following a series of PBS-T washes, plates were treated with 100 µL of mouse anti-human IgG3 (1:1000) followed by association with antimouse peroxidase (1:15.000) or goat anti-human immunoglobulin classes IgG (1:10.000), IgM (1:10.000), and IgA (1:5000) or subclasses IgG1 (1:1000) and IgG2 (1:1000) associated with the HRP molecule, respectively (Sigma-Aldrich, St Louis, MO, USA). Between each step, the plates were incubated at 37 °C for 1 h. Following the addition of 3,3′,5,5′-tetramethylbenzidine (1-Step™ Ultra TMB-ELISA, Science Biotech Ltd., Lages, SC, Brazil) for 15 min, 0.5 M sulfuric acid was utilized to terminate the reaction. The plate was read 30 min after the Stop Solution was added. The values of empty wells that contained only peptides were deducted from the optical density of the sample.
Prism software (GraphPad version 6, San Diego, CA, USA) was utilized to analyze the data. Statistical differences were identified using the Kruskal–Wallis test and Dunn’s multiple comparisons tests. Differences were considered significant when the p-value was less than 0.05. The reactivity index (RI) was calculated by dividing the absorbance of a given protein by the threshold established by a receiver operation curve (ROC) analysis. A result greater than 1.10 was considered positive, while a result less than 0.90 was considered negative; these are represented by dot lines. Samples with a relative index (RI) value of 1.0 ± 10% were classified as gray-zone samples and deemed inconclusive.

[2] = test system: Purified antibodies specific to the RBM (anti-RBM antibodies from vaccinated serum); assay type: binding, human
antibodies in sera = conditions: ref A novel precision-serology assay for SARS-CoV-2 infection based on linear B-cell epitopes of Spike protein; cited from earlier work
[3] = Protein thermal shift assay; assay type: physicochemical
Method: Protein thermal shift assays were performed using a QuantStudio 3 PCR System (Applied Biosystems, Foster City, CA, USA). The experiments used a 0.2 mL MicroAmp® optical eight-strip manufactured by Applied Biosystems. Every step was executed on ice. In each measurement, duplicates or quadruplicates of the samples were analyzed. Each measurement included a negative control free of protein and a positive control obtained with Lysozyme (10 µg) and the peptide S8WT (5 µg). A carbonate–bicarbonate buffer (50 mM, pH 9.6) and a protein thermal shift dye (Applied Biosystems, Foster City, CA, USA) were used in a 4× dye concentration. The plate was sealed with MicroAmp™ Optical Adhesive Film (Applied Biosystems, Foster City, CA, USA) and incubated on ice for 15 min after all components were pipetted into the wells. An Applied Biosystems QuantStudio™ 3 Real-Time PCR System was used, utilizing a gradient rate of 0.05 °C/s and a melt curve filter setting of x2-m2 from 25 °C to 99 °C with continuous data collection. Analyses of the melting curves were conducted with the TSAR application in R version 4.2.1.

[4] = first dose Oxford/AstraZeneca, n = 30, 500 ng peptide per well
[5] = heterologous booster doses, n = 7

YFPLQSYGFQPTNGV [S3WT]
IgG positive samples (reactivity index > 1.1) [1, 4]: only two positive samples
IgG positive samples (reactivity index > 1.1) [1, 5]: one for heterologous booster doses

GSTPCNGVEGFNCYF [S2WT]
binding affinity of RBM antibodies (in words) [2]: stronger
Kd ([2]; read-out: Kd (dissociation constant)): 35 nM
IgG positive samples (reactivity index > 1.1) [1, 4]: 4/30
IgG seroreactivity (positive samples) ([1]; first dose Oxford/AstraZeneca, n = 30): 13.3%
IgG positive samples (reactivity index > 1.1) [1, 5]: 1/7
IgG seroreactivity (positive samples) [1, 5]: 14.3%

NGVEGFNCYFP
serological reactivity vs other S1 and S2 regions (antibodies in sera): less serologically reactive than other S1 and S2 regions

Lysozyme
Tm ([3]; Lysozyme 10 µg control, carbonate–bicarbonate buffer 50 mM, pH 9.6, 25 to 99 °C, 0.05 °C/s, protein thermal shift dye): 72.7 °C
Tm ([3]; replicate 1 (Lysozyme_1), 10 µg, carbonate–bicarbonate buffer pH 9.6): 71.7 °C
Tm ([3]; replicate 2 (Lysozyme_2), 10 µg, carbonate–bicarbonate buffer pH 9.6): 73.7 °C
